Experimental data reported in ChEMBL document CHEMBL6121027, “Novel Bicyclic Heterocyclic Compounds as CD73 Inhibitors for Treating Cancer” (ACS Med Chem Lett, 2025).

Target: 5'-nucleotidase (Homo sapiens, UniProt P21589)
Test: Inhibition of recombinant human CD73 preincubated for 15 mins followed by AMP addition measured after 10 mins by LC/MS analysis

Sequence of 5'-nucleotidase (P21589 whole entry): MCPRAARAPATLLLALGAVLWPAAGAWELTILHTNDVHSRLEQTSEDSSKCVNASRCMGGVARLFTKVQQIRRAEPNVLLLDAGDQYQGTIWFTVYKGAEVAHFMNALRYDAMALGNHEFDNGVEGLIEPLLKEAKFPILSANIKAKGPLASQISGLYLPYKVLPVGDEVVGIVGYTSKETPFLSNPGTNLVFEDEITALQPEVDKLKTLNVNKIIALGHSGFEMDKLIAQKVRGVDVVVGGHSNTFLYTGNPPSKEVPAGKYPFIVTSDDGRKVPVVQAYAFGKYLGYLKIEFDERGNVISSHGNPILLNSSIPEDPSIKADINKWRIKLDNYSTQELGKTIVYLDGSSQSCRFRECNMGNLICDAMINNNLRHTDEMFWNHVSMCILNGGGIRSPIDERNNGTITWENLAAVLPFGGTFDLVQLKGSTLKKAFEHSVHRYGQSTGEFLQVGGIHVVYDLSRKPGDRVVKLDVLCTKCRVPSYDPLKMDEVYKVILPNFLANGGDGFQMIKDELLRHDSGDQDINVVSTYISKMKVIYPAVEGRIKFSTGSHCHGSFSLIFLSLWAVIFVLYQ

## Cn1nc(O[C@H](c2ccnc(OCC(C)(F)F)c2)C(F)F)c2cc(-c3n[nH]c(=O)[nH]c3=O)nnc21
  IC50: 0.04 nM

## C[C@H](Nc1cc([C@@H](Oc2nn(C)c3nnc(-c4n[nH]c(=O)[nH]c4=O)cc23)C(F)F)ccn1)C(F)(F)F
  IC50: 0.04 nM

## C[C@@H](Nc1cc([C@@H](Oc2nn(C)c3nnc(-c4n[nH]c(=O)[nH]c4=O)cc23)C(F)F)ccn1)C(F)(F)F
  IC50: 0.04 nM

## COCCOc1cc([C@@H](Oc2nn(C)c3nnc(-c4n[nH]c(=O)[nH]c4=O)cc23)C(F)F)ccn1
  IC50: 0.05 nM
